Laboratory results taken from US10471054B2, “CDK1 inhibitors of acetyl chrysin mannich base derivatives, synthesis and use thereof” (priority 2016, dated 2019).
Converted amounts (≈) assume the structure as drawn. Read-outs that look alike come from different tables or passages of the source.

Columns and labels:
[1] = target: CDK1 (Homo sapiens, UniProt P06493); experiment: CDK1 inhibition activity; assay type: biochemical
[2] = log P in Octanol/Water; assay type: physicochemical; settings: octanol/water, Octanol/Water at 37° C.
Procedure: (§1) The solubility and log P of acetyl ChrysinMannich base derivatives see TABLE 1.
(§2) CH-j is pKa 5.3, log P 1.63 in Octanol/Water at 37° C. […] (BA-j 77m/ml). CH-j belongs to BCS II (low solubility, high permeability) and solubility presents the pH dependence. […] CH-j is a pH dependent fast release. […] It is speculated that CH-j has more appropriate log P and solubility with more likely entering tissue cells than others solubility acetyl Chrysin Mannich base derivatives.
(§3) (about 20 times BA-f 277 μg/ml) and 564 μg/ml in water at 37° C. (about 1000 times BA-f 0.53m/ml). CH-f is BCS I (high solubility and permeability) and solubility presents the pH dependence. It is speculated that CH-f has more appropriate log P and solubility with entering systemic (blood system and tissue cells) than others solubility acetyl Chrysin Mannich base derivatives.

[3] = tested on: BGC-823; experiment: Anti-cancer cells proliferation activity (MTT, 48 h); assay type: cell-based; settings: Homo sapiens, BGC-823, MTT
Procedure: (§4) Anti-cancer cells proliferationactivity of in vitro CH-j and CH-f were shown in TABLE 2 for the results of the screening of 5 cancers cells.
FIG. 2: The initial screening results of the anticancer activity of BGC-823 (MTT, for 48 h), and X-coordinate is the drug concentration (MTT, for 48 h), and Y-coordinate the cell survival rate (%) in vitro.

[4] = pKa; assay type: physicochemical
Procedure: as §2, §3

[5] = tested on: MCF-7; experiment: Autophagy in MCF-7; assay type: cell-based; settings: 50 μM for 9 h and 24 h
[6] = tested on: MCF-7 and COS-7; experiment: NO level, Rh-NO fluorescent probe imaging; assay type: cell-based; settings: 25 μM for 12, 24, 48 h, Rh-NO probe 5 μM
Procedure: [Organic Letters, 2008, 10: 2357-2360] […] This is because of cycloalkylamine-methyl releasing NO by Cope reaction, and the higher level of NO 4-methylpiperazine than 4-hydroxypiperidine.
FIG. 1-6: The performed fluorescence imaging with Rh—NO 5 μM, and add 25 μM of CH-j and CH-f for 12, 24, 48 h, affected the level of NO for 12, 24 and 48 h in MCF-7 and COS-7 by Single beam electron confocal fluorescence microscope (488/604 nm).

[7] = tested on: Hep G2; experiment: Anti-cancer cells proliferation activity (MTT, 48 h); assay type: cell-based; settings: Homo sapiens, HepG2
Description: as §4

[8] = tested on: H-460; experiment: as above; assay type: cell-based; settings: Homo sapiens, NCI-H460, H-460, MTT
Description: as §4

[9] = tested on: PC-3; experiment: as above; assay type: cell-based; settings: Homo sapiens, PC-3, MTT
Description: as §4

[10] = tested on: MCF-7; experiment: as above; assay type: cell-based; settings: Homo sapiens, MCF7, MCF-7, MTT
Description: as §4

[11] = tested on: MCF-7; experiment: Hoechst 33258 fluorescence staining, apoptosis; assay type: cell-based; settings: 0, 5, 10, 20 μM for 24 h
Procedure: Hoechst 33258 is an active fluorescent dye with DNA specific binding, which is mainly combined with base area of DNA, which emits blue fluorescence when stimulated by ultraviolet light. The living cells emit uniform fluorescence, the apoptotic cells are bright blue fluorescence due to their chromatin fixation, dense and concentrated nuclei.
MCF-7 was treated with 0, 5, 10, 20 μM of CH-f and CH-j for 24 h, Hoechst 33258 fluorescence staining, and cell morphological changes were shown in FIG. 3-1. […] CH-f and CH-j are completely different from the cytotoxic drug HCPT, which appears to be apoptotic at low doses and necrotic at high doses in BGC-823.
FIG. 3-1 Hoechst 33258 staining results for MCF-7.

[12] = tested on: Bcl-2; experiment: Bcl-2 expression in MCF-7; assay type: cell-based; settings: 10 μM for 24 h
[13] = tested on: 5 cancers cells (MCF-7, H-460, BGC-823, PC-3, Hep G2); experiment: Anti-cancer cells proliferation activity, average of 5 cancer cells; assay type: cell-based; settings: for IC50: average of 5 cancer cells
Description: as §4

[14] = Solubility in Octanol, water and pH media; assay type: physicochemical
Procedure: as §1, §2, §3

CDK1, sequence (P06493 whole entry, species assumed): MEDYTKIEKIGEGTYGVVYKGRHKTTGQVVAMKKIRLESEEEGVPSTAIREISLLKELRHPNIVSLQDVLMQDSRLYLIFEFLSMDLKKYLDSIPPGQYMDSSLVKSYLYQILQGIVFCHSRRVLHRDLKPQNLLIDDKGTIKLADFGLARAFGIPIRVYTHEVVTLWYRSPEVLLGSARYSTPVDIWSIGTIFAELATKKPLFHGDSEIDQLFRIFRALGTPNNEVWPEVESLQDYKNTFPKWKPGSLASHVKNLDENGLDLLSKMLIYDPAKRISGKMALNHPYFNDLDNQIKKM
CDK1, sequence (P14635 whole entry partner, species assumed): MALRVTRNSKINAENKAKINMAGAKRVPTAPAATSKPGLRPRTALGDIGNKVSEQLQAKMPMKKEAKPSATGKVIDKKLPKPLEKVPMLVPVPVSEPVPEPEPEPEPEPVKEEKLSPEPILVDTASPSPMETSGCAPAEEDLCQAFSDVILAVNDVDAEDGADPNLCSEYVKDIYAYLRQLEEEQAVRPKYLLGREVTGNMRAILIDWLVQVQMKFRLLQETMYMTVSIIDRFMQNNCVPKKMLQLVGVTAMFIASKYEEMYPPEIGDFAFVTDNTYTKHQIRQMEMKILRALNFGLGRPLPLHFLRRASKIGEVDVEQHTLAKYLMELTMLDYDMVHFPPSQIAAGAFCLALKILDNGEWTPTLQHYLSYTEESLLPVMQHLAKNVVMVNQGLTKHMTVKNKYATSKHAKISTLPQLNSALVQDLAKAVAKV

- CDK1 inhibition, times stronger than BA-j [1]: about 2 times
- logP [2]: 0.99
- IC50 [3]: 5.2 ± 1.21 µM
- pKa [4]: 4.9
- IC50 [7]: 6.1 ± 1.45 µM
- IC50 [8]: 5.6 ± 1.33 µM
- IC50 [9]: 5.1 ± 1.17 µM
- IC50 [10]: 5.2 ± 1.24 µM
- IC50 [13]: 2.3 µg/mL
- IC50 ([13]; MTT, 48 h): 5.6 µM
- BCS class [14]: BCS I
- Solubility in water relative to BA-f ([14]; 37° C.): about 1000 times
- Solubility in Octanol relative to BA analogue ([14]; CH-j vs BA-j, CH-f vs BA-f, 37° C.): about 20 times
- solubility ([14]; organic solvent or mixture, Octanol, 37° C., read-out: Solubility in Octanol): 5510 µg/mL (≈ 13.5 mM)
- solubility ([14]; water, 37° C., read-out: Solubility in H2O): 564 µg/mL (≈ 1.38 mM)
SMILES: CC(=O)c1c(O)c(CN2CCN(C)CC2)c2oc(-c3ccccc3)cc(=O)c2c1O [CH-f, 6-Acetyl-5,7-dihydroxy-8-(4-methylpiperazin-1-ylmethyl)-2-phenyl-chromen-4-one]
- CDK1 50% inhibitory concentration ([1]; read-out: inhibiting CDK1 CC50): 130 nM
- Autophagy [5]: can cause autophagy
- Level of NO, red fluorescence [6]: stronger red fluorescence than CH-j in MCF-7
- Apoptosis by Hoechst 33258 staining [11]: apoptosis cell percentage in dose dependent increase
- Bcl-2 expression [12]: Bcl-2 expression can be suppressed
- Anti-proliferative activity, times stronger than BA-j [13]: 2 times
- Anti-proliferative activity, times stronger than Chrysin [13]: 5 times
